Structures can show the parent of a compound that is named as a salt.
biological target: human KV7.2/KV7.3 (Homo sapiens (Human), UniProt O43525+O43526); assay: Potassium flux assay (IPG-2 AM dye); type: cell-based; details: TREX HEK 293 or HEK 293 cells expressing human KV7.2/KV7.3; arithmetic mean values
Source text: This potassium flux assay employs the cell-permeable, potassium-sensitive dye, IPG-2 AM, to quantify potassium ion flux through potassium channels.
In general, TREX HEK 293 or HEK 293 cells were stably transfected with either an inducible or non-inducible expression vector containing the full-length cDNA coding for the desired human KV7.2/KV7.3 or in combination with another full-length cDNA for a second desired human KV7 potassium channel. Potassium channel-expressing cell lines were induced with tetracycline (1 μg/mL), if required, and plated on 384-well poly-D-lysine (PDL)-coated plates in culture media (DMEM, containing 10% FBS and 1% L-glutamine). After overnight incubation, culture media was removed and cells were loaded with 5 μM IPG-2 AM dye for 1 hour in Assay buffer (140 mM NaCl, 20 mM RbCl, 2 mM CaCl2, 1 mM MgCl2, 10 mM HEPES (4-(2-hydroxyethyl)-1-piperazineethanesulfonic acid buffer), 10 mM glucose, adjusted with Tris to pH 7.4). Excess dye was removed, and cells incubated at room temperature for 20 minutes with or without test compound. A Hamamatsu FDSS μCell was used to perform a 1:1 addition of K challenge buffer (150 mM NaCl, 10 mM HEPES, 2 mM CaCl2, 10 mM KCl, 1 mM MgCl2, 10 mM glucose, adjusted with Tris to pH 7.4 for human KV7.2/KV7.3, and simultaneously read plates at excitation wavelength of 530 nm and emission wavelength of 558 nm. Non-potassium channel-mediated potassium influx was determined in the presence of DMSO, and maximal influx was determined in the presence of a known KV7.x channel modulator. For each test compound, a concentration response curve was generated with 16 concentrations points, 2-fold serial dilution starting at 30 μM and an EC50 value was determined.

Structure (SMILES)	EC50
Cc1ncc(Nc2nccc3cc(OCC4(F)CNC4)ccc23)cn1 [Example 58, 6-((3-fluoroazetidin-3-yl)methoxy)-N-(2-methylpyrimidin-5-yl)isoquinolin-1-amine]	≥ 30 µM
FC1(COc2ccc3c(Nc4ccc(Cl)nc4)nccc3c2)CNC1 [Example 59, N-(6-chloropyridin-3-yl)-6-((3-fluoroazetidin-3-yl)methoxy)isoquinolin-1-amine hydrochloride]	10 to 30 µM
COc1ccc(Nc2nccc3cc(OCC4(C)COC4)ccc23)cn1 [Example 67, N-(6-methoxypyridin-3-yl)-6-((3-methyloxetan-3-yl)methoxy)isoquinolin-1-amine]	≥ 30 µM
Oc1ccc2c(Nc3ccc(Cl)nc3)nccc2c1 [Example 69, 1-((6-chloropyridin-3-yl)amino)isoquinolin-6-ol]	10 to 30 µM
Clc1ccc(Nc2nccc3cc(OCCN4CC5(CCO5)C4)ccc23)cn1 [Example 70, 6-(2-(1-oxa-6-azaspiro[3.3]heptan-6-yl)ethoxy)-N-(6-chloropyridin-3-yl)isoquinolin-1-amine]	10 to 30 µM
Clc1ccc(Nc2nccc3cc(OCCN4CC5(CCC5)C4)ccc23)cn1 [Example 71, 6-(2-(2-azaspiro[3.3]heptan-2-yl)ethoxy)-N-(6-chloropyridin-3-yl)isoquinolin-1-amine]	10 to 30 µM
COC1CN(CCOc2ccc3c(Nc4ccc(Cl)nc4)nccc3c2)C1 [Example 72, N-(6-chloropyridin-3-yl)-6-(2-(3-methoxyazetidin-1-yl)ethoxy)isoquinolin-1-amine]	10 to 30 µM
Clc1ccc(Nc2nccc3cc(OCCN4CC5(COC5)C4)ccc23)cn1 [Example 73, 6-(2-(2-oxa-6-azaspiro[3.3]heptan-6-yl)ethoxy)-N-(6-chloropyridin-3-yl)isoquinolin-1-amine]	≥ 30 µM
Clc1ccc(Nc2nccc3cc(OCCn4ccnc4)ccc23)cn1 [Example 74, 6-(2-(1H-imidazol-1-yl)ethoxy)-N-(6-chloropyridin-3-yl)isoquinolin-1-amine]	≥ 30 µM
O=c1cc[nH]n1CCOc1ccc2c(Nc3ccc(Cl)nc3)nccc2c1 [Example 75, 2-(2-((1-((6-chloropyridin-3-yl)amino)isoquinolin-6-yl)oxy)ethyl)-1,2-dihydro-3H-pyrazol-3-one]	1 to 10 µM
Clc1ccc(Nc2nccc3cc(OCc4ccccc4)ccc23)cn1 [Example 76, 6-(benzyloxy)-N-(6-chloropyridin-3-yl)isoquinolin-1-amine]	≥ 30 µM
CC(C)(C#N)COc1ccc2c(Nc3ccc(Cl)nc3)nccc2c1 [Example 78, 3-((1-((6-chloropyridin-3-yl)amino)isoquinolin-6-yl)oxy)-2,2-dimethylpropanenitrile]	1 to 10 µM
Clc1ccc(Nc2nccc3cc(OCC4CC5(COC5)C4)ccc23)cn1 [Example 81, 6-((2-oxaspiro[3.3]heptan-6-yl)methoxy)-N-(6-chloropyridin-3-yl)isoquinolin-1-amine]	1 to 10 µM
Clc1ccc(Nc2nccc3cc(OCn4cccn4)ccc23)cn1 [Example 82, 6-((1H-pyrazol-1-yl)methoxy)-N-(6-chloropyridin-3-yl)isoquinolin-1-amine]	1 to 10 µM
FC1(F)CCCC(Oc2ccc3c(Nc4ccc(Cl)nc4)nccc3c2)C1 (stereo not shown) [Example 83, N-(6-chloropyridin-3-yl)-6-((3,3-difluorocyclohexyl)oxy)isoquinolin-1-amine]	1 to 10 µM
Clc1ccc(Nc2nccc3cc(OCc4cnn5c4OCCC5)ccc23)cn1 [Example 84, N-(6-chloropyridin-3-yl)-6-((6,7-dihydro-5H-pyrazolo[5,1-b][1,3]oxazin-3-yl)methoxy)isoquinolin-1-amine]	10 to 30 µM
FC1(F)COCC1Oc1ccc2c(Nc3ccc(Cl)nc3)nccc2c1 (stereo not shown) [Example 86, N-(6-chloropyridin-3-yl)-6-((4,4-difluorotetrahydrofuran-3-yl)oxy)isoquinolin-1-amine 2,2,2-trifluoroacetate]	1 to 10 µM
Cn1cnnc1COc1ccc2c(Nc3ccc(Cl)nc3)nccc2c1 [Example 87, N-(6-chloropyridin-3-yl)-6-((4-methyl-4H-1,2,4-triazol-3-yl)methoxy)isoquinolin-1-amine]	1 to 10 µM
Cc1ncc(Nc2nccc3cc(OCC4(C#N)CC4)ccc23)cn1 [Example 88, 1-(((1-((2-methylpyrimidin-5-yl)amino)isoquinolin-6-yl)oxy)methyl)cyclopropane-1-carbonitrile]	1 to 10 µM

The remaining lines, values ahead:

EC50	Structure (SMILES)
1 to 10 µM	Cc1ncc(Nc2nccc3cc(OCC4(F)COC4)ccc23)cn1 [Example 57, 6-((3-fluorooxetan-3-yl)methoxy)-N-(2-methylpyrimidin-5-yl)isoquinolin-1-amine]
1 to 10 µM	N#CC1(Oc2ccc3c(Nc4cnc(Cl)nc4)nccc3c2)CC1 [Example 60, 1-((1-((2-chloropyrimidin-5-yl)amino)isoquinolin-6-yl)oxy)cyclopropane-1-carbonitrile]
1 to 10 µM	NC(=O)C1(Oc2ccc3c(Nc4cnc(Cl)nc4)nccc3c2)CC1 [Example 61, 1-((1-((2-chloropyrimidin-5-yl)amino)isoquinolin-6-yl)oxy)cyclopropane-1-carboxamide]
1 to 10 µM	Cn1nc(COc2ccc3c(Nc4ccc(Cl)nc4)nccc3c2)cc1C#N [Example 62, 3-(((1-((6-chloropyridin-3-yl)amino)isoquinolin-6-yl)oxy)methyl)-1-methyl-1H-pyrazole-5-carbonitrile]
1 to 10 µM	Cc1nnc(COc2ccc3c(Nc4ccc(Cl)nc4)nccc3c2)o1 [Example 63, N-(6-chloropyridin-3-yl)-6-((5-methyl-1,3,4-oxadiazol-2-yl)methoxy)isoquinolin-1-amine]
< 1 µM	N#C[C@H]1C[C@](F)(COc2ccc3c(Nc4cnc(Cl)nc4)nccc3c2)C1 [Example 64, (1s,3s)-3-(((1-((2-chloropyrimidin-5-yl)amino)isoquinolin-6-yl)oxy)methyl)-3-fluorocyclobutane-1-carbonitrile]
< 1 µM	Cn1cncc1COc1ccc2c(Nc3ccc(Cl)nc3)nccc2c1 [Example 65, N-(6-chloropyridin-3-yl)-6-((1-methyl-1H-imidazol-5-yl)methoxy)isoquinolin-1-amine]
< 1 µM	FC(F)COc1ccc2c(Nc3cnc(Cl)nc3)nccc2c1 [Example 66, N-(2-chloropyrimidin-5-yl)-6-(2,2-difluoroethoxy)isoquinolin-1-amine]
< 1 µM	FC1(COc2ccc3c(Nc4cnc(Cl)nc4)nccc3c2)CC1 [Example 68, N-(2-chloropyrimidin-5-yl)-6-((1-fluorocyclopropyl)methoxy)isoquinolin-1-amine]
< 1 µM	N#CC1(COc2ccc3c(Nc4ccc(Cl)nc4)nccc3c2)CCC1 [Example 77, 1-(((1-((6-chloropyridin-3-yl)amino)isoquinolin-6-yl)oxy)methyl)cyclobutane-1-carbonitrile]
< 1 µM	N#CC1(COc2ccc3c(Nc4ccc(Cl)nc4)nccc3c2)CC1 [Example 80, 1-(((1-((6-chloropyridin-3-yl)amino)isoquinolin-6-yl)oxy)methyl)cyclopropane-1-carbonitrile]
< 1 µM	N#CC1(COc2ccc3c(Nc4ccc(Cl)nc4)nccc3c2)COC1 [Example 85, 3-(((1-((6-chloropyridin-3-yl)amino)isoquinolin-6-yl)oxy)methyl)oxetane-3-carbonitrile]
